Key:
[1] = biological target: T1, HPK1 kinase (aa1-346, Life Technologies) (Homo sapiens, UniProt Q92918); test: HPK Kinase Activity Assay at 1 mM ATP (TR-FRET); assay type: biochemical; conditions: HPK1 kinase 40 nM, 0.5 μM STK1 substrate, 60 min preincubation, read-out: Enzymatic activity IC50
T1 construct: HPK1 kinase (aa1-346, Life Technologies); purchased Life Technologies
T1 sequence (Q92918 1-346): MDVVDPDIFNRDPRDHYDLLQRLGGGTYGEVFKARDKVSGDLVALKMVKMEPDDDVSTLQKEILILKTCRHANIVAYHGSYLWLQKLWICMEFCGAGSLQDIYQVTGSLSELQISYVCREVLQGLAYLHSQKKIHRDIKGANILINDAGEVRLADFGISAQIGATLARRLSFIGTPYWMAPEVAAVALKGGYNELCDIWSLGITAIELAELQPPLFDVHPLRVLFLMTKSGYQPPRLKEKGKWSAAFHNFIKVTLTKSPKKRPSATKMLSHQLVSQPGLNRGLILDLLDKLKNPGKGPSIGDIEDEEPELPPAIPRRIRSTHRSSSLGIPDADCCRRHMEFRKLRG
Procedure: HPK Kinase Activity Assay at 1 mM ATP
Compounds disclosed herein were tested for inhibition of HPK1 kinase (aa1-346, Life Technologies) activity in assays based on the time-resolved fluorescence-resonance energy transfer (TR-FRET) methodology. The assays were carried out in 384-well low volume black plates in a reaction mixture containing HPK1 kinase (40 nM), 1 mM ATP, 0.5 μM STK1 substrate and 0-10 μM compound in buffer containing 50 mM HEPES, 0.01% BSA, 0.1 mM Orthovanadate, 10 mM MgCl2, 1 mM DTT, pH=7.0, 0.005% Tween-20. The kinase was incubated with the compounds disclosed herein or DMSO for 60 minutes at room temperature and the reaction was initiated by the addition of ATP and STK1 substrate. After reaction at room temperature for 120 minutes, an equal volume of stop/detection solution was added according to the manufacture's instruction (CisBio). The stop/detection solution contained STK Antibody—Cryptate and XL665-conjugated streptavidin in Detection Buffer. The TR-FRET signals (ratio of fluorescence emission at 665 nm over emission at 620 nm with excitation at 337 nm wavelength) were recorded on a PHERAstar FS plate reader (BMG Labtech). Phosphorylation of STK1 substrate led to the binding of STK Antibody—Cryptate to the biotinylated STK1 substrate, which places fluorescent donor (Eu^3+ crypate) in close proximity to the accepter (Streptavidin-XL665), thus resulting in a high degree of fluorescence resonance energy transfer. The inhibition of HPK1 in presence of increasing concentrations of compounds was calculated based on the ratio of fluorescence at 665 nm to that at 620 nm. IC50 determination was performed by fitting the curve of percent inhibition versus the log of the inhibitor concentration using Dotmatics.

[2] = system: pSLP76 (S376) level in Jurkat cell line; test: Cellular pSLP76(S376) HTRF Assay in Jurkat cells; assay type: cell-based; conditions: 2 h compound treatment, stimulated with 0.05 μg/mL anti-human CD3 (OKT3) for 30 min
Procedure: Cellular pSLP76(S376) HTRF Assay
Jurkat cell line was used in this study. Cells were maintained in RPMI 1640 supplemented with heat-inactivated 10% fetal bovine serum (Thermo Fisher), 50 units/mL penicillin and streptomycin (Thermo Fisher) and kept at 37° C. in a humidified atmosphere of 5% CO2 in air. Cells were reinstated from frozen stocks that were laid down within 30 passages from the original cells purchased. After cell starvation in the assay buffer (RPMI 1640 supplemented with heat-inactivated 0.1% fetal bovine serum) for 18 hours, cells were seeded into a round bottom 96-well plate at 150,000 cells per well density. Cells were treated with a 9-point dilution series of test compounds. The final compound concentration is from 0 to 2 μM. After 2 h compound treatment, cells were stimulated with 0.05 μg/mL anti-human CD3 (OKT3, Bioxcell) for 30 min at 37° C. Then the cells were lysed, and the pSLP76 (S376) level in the cell lysates was detected by HTRF kit (Cisbio). A total of 16 μL of cell lysate from each well of a 96-well plate was transferred to a 384-well small volume white assay plate. Lysate from each well was incubated with 2 μL of Eu^3+-cryptate (donor) labeled anti-phospho-SLP76 and 2 μL of D2 (acceptor) labeled anti-phospho-SLP76 antibodies (Cisbio) overnight in dark at room temperature. FRET signals (655 nm) were measured using a PHERAstar FSX reader (BMG Labtech). IC50 determination was performed by fitting the curve of percent inhibition versus the log of the inhibitor concentration using Dotmatics.

HPK1 protein [3] = biological target: T2, HPK1 protein (Homo sapiens, UniProt Q92918); test: HPK1 Protein Degradation Assay in Human PBMC (Western Blot); assay type: cell-based; conditions: 24 h compound incubation
T2 construct: host or cells: human PBMC (CD4+ and CD8+ T cells gated in the FACS assay)
Procedure: HPK1 Protein Degradation Assay in Human PBMC (Western Blot)
Human PBMCs (AllCells) was used in this study. Cells were thawed one day in advance and maintained in RPMI-1640 supplemented 10% fetal bovine serum (Thermo Fisher), 50 units/mL penicillin and streptomycin (Thermo Fisher) and the mixture was kept at 37° C. in a humidified atmosphere air containing 5% CO2. 3×10^6 PBMCs per well in 1 mL culture medium were seeded in the 12-well plate, and the cells were treated with an appropriate dilution series of compounds with a final concentration up to […]. After 24 h of compound incubation, the medium was aspirated, the cells were washed with PBS, and then 30 μL of 1X protein lysis buffer (Cell Signaling Technology) containing protease inhibitors (Merck) and phosphatase inhibitors (Sigma) was added. The cells were lysed. After centrifugation, the supernatants were quantified by BCA protein assay kit (Thermo Fisher). 4X loading Buffer (Thermo Fisher) was added to equal amounts of total protein from each sample and heated at 95° C. for 5 minutes. 30-50 μg of cell lysate was loaded onto a 4%-12% NuPAGE Bis-Tris Gel (Thermo Fisher) and electro-transferred to NC membranes (Thermo Fisher). The membranes were blocked for least 1 hour with blocking reagent (LI-COR), and then incubated overnight with anti-HPK1 (Cell Signaling Technology, 4472S) antibodies and as loading control anti-ß-actin (Cell Signaling Technology, 3700S) or anti-GAPDH (Cell Signaling Technology, 97166S) at 4° C. with gentle shaking. The membranes were washed three times with TBST, and incubated at least 1 hour at room temperature with anti-mouse or anti-rabbit secondary fluorescent antibody (Thermo Fisher, A32729; LI—COR, 926-32213). Then the membranes were washed three times in TBST, and one time in water. Immunoreactive bands were visualized by Odyssey CLx and analyzed by GraphPad Prism 8.

HPK1 protein [4] = biological target: T2, HPK1 protein; test: HPK1 Protein Degradation Assay in Human PBMC (FACS); assay type: cell-based; conditions: 24 h compound treatment
Procedure: HPK1 Protein Degradation Assay in Human PBMC (FACS)
Human PBMCs (AllCells) was used in this study. Cells were thawed one day in advance and maintained in RPMI-1640 supplemented 10% fetal bovine serum (Thermo Fisher), 50 units/mL penicillin and streptomycin (Thermo Fisher) and the mixture was kept at 37° C. in a humidified atmosphere air containing 5% CO2. 3×10^6 PBMCs per well in 95 μL culture medium were seed in the 96-well plate, and the cells were treated with an appropriate dilution series of compounds. After 24 h compound treatment, 100 μL 1xLyse/Fix buffer (BD, diluted with water, warm up in 37° C.) was added to cells and the cells were incubated at 37° C. for 10 minutes. After fixed, the cells were transferred to V-bottom plates (Corning), and washed with FACS buffer (cold 2% FBS DPBS). The cells were permeabilized by adding 100 μL pre-chilled BD Phosflow Perm Buffer III (BD) for 30 min on ice. After washed with FACS buffer twice, the cells were incubated with 50 μL antibody cocktail (HPK1(CST)(1:50), anti-human CD4 BV421 (BD)(1:25), anti-human CD8 APC(BD) (1:25)) at room temperature for 1 h. After washed with FACS buffer twice, the cells were further incubated with 50 μL secondary antibody cocktail (Biolegend) (1:50) at room temperature for 1 h. After washed with FACS buffer twice, the signals were detected by BD FACS Celesta. The data were analyzed by Excel and GraphPad Prism 8.

[5] = CD4+ T Cells, read-out: Protein degradation DC50, CD4+ T Cells
[6] = CD4+ T Cells, read-out: Protein degradation Dmax, CD4+ T Cells
[7] = CD8+ T Cells, read-out: Protein degradation DC50, CD8+ T Cells
[8] = CD8+ T Cells, read-out: Protein degradation Dmax, CD8+ T Cells

T2 sequence (Q92918 whole entry): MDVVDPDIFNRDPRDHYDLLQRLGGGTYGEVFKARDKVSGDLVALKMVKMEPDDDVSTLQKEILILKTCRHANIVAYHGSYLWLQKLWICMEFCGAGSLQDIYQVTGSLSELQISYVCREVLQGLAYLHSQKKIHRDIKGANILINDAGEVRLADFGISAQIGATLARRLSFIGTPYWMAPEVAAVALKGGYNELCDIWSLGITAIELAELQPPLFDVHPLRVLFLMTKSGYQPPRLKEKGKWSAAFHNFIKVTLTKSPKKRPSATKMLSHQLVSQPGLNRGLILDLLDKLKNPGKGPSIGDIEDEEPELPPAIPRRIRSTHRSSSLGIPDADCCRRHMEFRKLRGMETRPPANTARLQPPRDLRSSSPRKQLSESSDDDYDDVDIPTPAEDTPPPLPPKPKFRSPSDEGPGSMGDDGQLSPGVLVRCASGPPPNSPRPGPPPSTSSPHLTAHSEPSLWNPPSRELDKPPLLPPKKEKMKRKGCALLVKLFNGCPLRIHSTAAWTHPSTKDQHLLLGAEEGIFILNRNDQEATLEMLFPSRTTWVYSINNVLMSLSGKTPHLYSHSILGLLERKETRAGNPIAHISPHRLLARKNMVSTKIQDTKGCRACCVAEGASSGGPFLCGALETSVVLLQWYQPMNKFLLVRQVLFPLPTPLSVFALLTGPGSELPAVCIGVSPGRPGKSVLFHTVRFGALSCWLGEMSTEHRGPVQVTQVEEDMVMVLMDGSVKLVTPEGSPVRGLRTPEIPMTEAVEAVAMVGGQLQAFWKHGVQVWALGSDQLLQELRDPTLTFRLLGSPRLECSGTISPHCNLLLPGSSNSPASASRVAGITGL

SMILES | IC50 [1] [nM] | IC50 [2] [nM] | DC50 (HPK1 protein [3]) [nM] | Dmax (HPK1 protein [3]) [%] | Protein degradation DC90 (HPK1 protein [3]) [nM] | Protein degradation DC90, CD4+ T Cells (HPK1 protein [4]; CD4+ T Cells) [nM] | DC50 (HPK1 protein [4]; [5]) [nM] | Dmax (HPK1 protein [4]; [6]) [%] | Protein degradation DC90, CD8+ T Cells (HPK1 protein [4]; CD8+ T Cells) [nM] | DC50 (HPK1 protein [4]; [7]) [nM] | Dmax (HPK1 protein [4]; [8]) [%]
Cc1cc(-c2cnc3[nH]cc(-c4ccc(C(=O)N(C)C)cc4)c3n2)cc2c1CN(CCC(=O)N1CCN(c3ccc(N4CCC(=O)NC4=O)cc3)CC1)CC2 [Example 5, 4-(2-(2-(3-(4-(4-(2,4-dioxotetrahydropyrimidin-1(2H)-yl)phenyl)piperazin-1-yl)-3-oxopropyl)-8-methyl-1,2,3,4-tetrahydroisoquinolin-6-yl)-5H-pyrrolo[2,3-b]pyrazin-7-yl)-N,N-dimethylbenzamide] | 24 | 116 | – | – | – | 60 | 9 | 95 | 128 | 17 | 96
Cc1cc(-c2cnc3[nH]cc(-c4ccc(C(=O)N(C)C)cc4)c3c2)cc2c1CN(CCC(=O)N1CCN(c3ccc(N4CCC(=O)NC4=O)cc3)CC1)CC2 [Example 6, 4-(5-(2-(3-(4-(4-(2,4-dioxotetrahydropyrimidin-1(2H)-yl)phenyl)piperazin-1-yl)-3-oxopropyl)-8-methyl-1,2,3,4-tetrahydroisoquinolin-6-yl)-1H-pyrrolo[2,3-b]pyridin-3-yl)-N,N-dimethylbenzamide] | 31 | 88 | – | – | – | 52 | 11 | 96 | 104 | 16 | 96
Cc1cc(-c2cnc3[nH]cc(-c4ccc(C(=O)N(C)C[C@H](C)O)cc4)c3n2)cc2c1CN(CCC(=O)N1CCN(c3ccc(N4CCC(=O)NC4=O)cc3)CC1)CC2 [Example 7, (S)-4-(2-(2-(3-(4-(4-(2,4-dioxotetrahydropyrimidin-1(2H)-yl)phenyl)piperazin-1-yl)-3-oxopropyl)-8-methyl-1,2,3,4-tetrahydroisoquinolin-6-yl)-5H-pyrrolo[2,3-b]pyrazin-7-yl)—N-(2-hydroxypropyl)—N-methylbenzamide] | 20 | 307 | – | – | – | 118 | 25 | 95 | 388 | 45 | 95

Further lines, results first:

IC50 [1] [nM] | IC50 [2] [nM] | DC50 (HPK1 protein [3]) [nM] | Dmax (HPK1 protein [3]) [%] | Protein degradation DC90 (HPK1 protein [3]) [nM] | Protein degradation DC90, CD4+ T Cells (HPK1 protein [4]; CD4+ T Cells) [nM] | DC50 (HPK1 protein [4]; [5]) [nM] | Dmax (HPK1 protein [4]; [6]) [%] | Protein degradation DC90, CD8+ T Cells (HPK1 protein [4]; CD8+ T Cells) [nM] | DC50 (HPK1 protein [4]; [7]) [nM] | Dmax (HPK1 protein [4]; [8]) [%] | SMILES
121 | 879 | 183 | 47 | 3805 | – | – | – | – | – | – | Cc1cc(-c2c[nH]c3ncc(-c4cc(C)c5c(c4)CCN(CCNC(=O)C4CCN(c6ccc7c(c6)C(=O)N(C6CCC(=O)NC6=O)C7=O)CC4)C5)nc23)ccc1C(=O)N(C)C (stereo not drawn) [Example 1, N-(2-(6-(7-(4-(dimethylcarbamoyl)-3-methylphenyl)-5H-pyrrolo[2,3-b]pyrazin-2-yl)-8-methyl-3,4-dihydroisoquinolin-2(1H)-yl)ethyl)-1-(2-(2,6-dioxopiperidin-3-yl)-1,3-dioxoisoindolin-5-yl)piperidine-4-carboxamide]
297 | 496 | – | – | – | – | – | – | – | – | – | Cc1cc(-c2c[nH]c3ncc(-c4cc(C)c5c(c4)CCN(CCNC(=O)CC4CCN(c6ccc(C7CCC(=O)NC7=O)cc6)CC4)C5)nc23)ccc1C(=O)N(C)C (stereo not drawn) [Example 8, 4-(2-(2-(2-(2-(1-(4-(2,6-dioxopiperidin-3-yl)phenyl)piperidin-4-yl)acetamido)ethyl)-8-methyl-1,2,3,4-tetrahydroisoquinolin-6-yl)-5H-pyrrolo[2,3-b]pyrazin-7-yl)-N,N,2-trimethylbenzamide]
16 | 181 | – | – | – | 77 | 19 | 93 | 495 | 71 | 95 | Cc1cc(-c2cnc3[nH]cc(-c4ccc(C(=O)N(C)C[C@H](C)O)cc4)c3c2)cc2c1CN(CCC(=O)N1CCN(c3ccc(N4CCC(=O)NC4=O)cc3)CC1)CC2 [Example 9, (S)-4-(5-(2-(3-(4-(4-(2,4-dioxotetrahydropyrimidin-1(2H)-yl)phenyl)piperazin-1-yl)-3-oxopropyl)-8-methyl-1,2,3,4-tetrahydroisoquinolin-6-yl)-1H-pyrrolo[2,3-b]pyridin-3-yl)-N-(2-hydroxypropyl)-N-methylbenzamide]

— US20240228497A1, “Pyrrolo[2, 3-b]Pyrazine-Based Bifunctional Compounds as HPK1 Degraders and the Use Thereof” (BeiGene, Ltd., priority 2021, published 2024)
